No end group written: not given here.
Tests used:
PBMC [1] = experiment: FITC-labeled PIF binding to PBMC subpopulations (flow cytometry); parameters: species or system human; settings: 0.75 to 48.19 μM, 1 h room temperature
Experimental: Expression of PIF-1(15) (SEQ ID NO:1), receptor following PHA induced PBMC proliferation CD-4 T cells; CD-8 T cells; NK cell and B cells (unstimulated-top); (PHA stimulated-bottom). Flow cytometry analysis of PBMC following exposure to FITC sPIF-1(15) (SEQ ID NO:13) % expression was determined in PBMC subtypes before and after exposure to 1 ug/ml PHA for 24 hours.
Human PBMC were isolated by the Ficoll method. FITC-labeled nPIF-115 (SEQ ID NO: 1) and (FITC)-labeled scrPIF-1 (SEQ ID NO:5) and match-size irrelevant peptide (FITC)-labeled negative controls negPIF-1(15) (SEQ ID NO:11), were dissolved in PBS at concentrations ranging from 0.75 to 48.19 μM, and were incubated with 500,000 lymphocytes for 1 h at room temperature. The cells were washed 6 times with PBS and resuspended in 500 μl of the same buffer. T-cells and monocytes identification was performed in independent experiments by incubation with anti-CD3 and anti-CD14 antibody-phycoerithryn (PE) labeled. nPIF-115 (SEQ ID NO: 1) binding to PBMC was determined by flow cytometry. In addition, rosettes formed by T cell-platelets were detected by flow cytometry using anti-CD3 antibody-PE and anti-CD41a antibody-FITC (all antibodies were from Pharmingen Inc.).
Using flow cytometry fluoroscein-labeled sPIF-115 (SEQ ID NO: 13) binding to immune cells was examined on resting PBMC.

epithelial cells = experiment: PIF binding to endometrial epithelial cells (MaBCD2 staining); parameters: species or system human; settings: compared to non-relevant IgG
Experimental: In addition, to compare the recovery of β-3 integrin expression with PIF effects described after cultured hEEC in a free-fetal bovine serum (FBS) medium some cells were cultured again in FBS-medium. […] PIF binding to epithelial cells was also examined. Binding was examined using MaBCD2 staining.

mice = experiment: Intravaginal administration twice daily for seven days in mated mice; type: in vivo; settings: mice that conceived; implantation sites and viable embryos unaffected
Experimental: Female mice were mated with mice from the same strain. Subsequently, on day 0 (presumed day of mating) PIF-1scr in saline solution was administered intravaginally twice daily for seven days (Dr Alan Hoberman, Argus, Inc). The dose was 800 ug/day, 150 ug/ml or saline vehicle only (5 animals in each group). Subsequently, mice were sacrificed at day 12 of presumed gestation and Caesarean-sectioned. Corpora lutea, implantation sites and live and dead embryos were recorded.

PBMC [2] = experiment: PIF and analogues on release of cytokines +/- platebound mAbCD3 (Table 4); type: cell-based; parameters: IL-1β / TNFa / IL-4 / IL-5 / IL-6 / IL-10 / GM-CSM / IFN-g: unit not given here

## GMRELQRSANK [negPIF-1(15), reference compound]
PBMC [1]
  labeling of T cell-platelet rosettes by FITC-labeled peptide: not labeled

## SGIVIYQYMDDRYVGSDL [sPIF-3(18)]
Epithelial cells
  binding to epithelial cells: mild

## GRVDPSNKSMPKDIA [scrPIF-115, GRVDPSNKSMPKDIA]
mice
  toxic or teratogenic effects: No toxic or teratogenic effects

## PGSA [sPIF-1(4)]
PBMC [2]; C- (platebound mAbCD3), /1
  GM-CSM: 13.7
  IFN-g: 81.3
  IL-1β: 6.0
  IL-2: 24.0
  IL-4: 0
  IL-5: 0
  IL-6: 233.6
  IL-8: >5000
  IL-10: 44.1
  TNFa: 68.3
PBMC [2]; C- (platebound mAbCD3), /50
  GM-CSM: 27.3
  IFN-g: 145.4
  IL-1β: 7.3
  IL-2: 36.2
  IL-4: 17.8
  IL-5: 8.6
  IL-6: 270.1
  IL-8: >5000
  IL-10: 82.5
  TNFa: 299.9
PBMC [2]; U- (no mAbCD3), /1
  GM-CSM: 0
  IFN-g: 0
  IL-1β: 0
  IL-2: 0
  IL-4: 0
  IL-5: 0
  IL-6: 32.9
  IL-8: 809.3
  IL-10: 0
  TNFa: 0
PBMC [2]; U- (no mAbCD3), /50
  GM-CSM: 0
  IFN-g: 0
  IL-1β: 0
  IL-2: 0
  IL-4: 0
  IL-5: 0
  IL-6: 33.4
  IL-8: 1079.9
  IL-10: 0
  TNFa: 0
PBMC [2]; non-stimulated PBMC
  effect on IL6 and 8: stimulatory effect

From US7723289B2, “PIF tetrapeptides” (BioIncept, LLC, priority 2003, dated 2010)
